Reference: the supplement of paper PMC10307832

Tests used:
Assay in all cases: relative viability (nuclei count vs DMSO), 5 days (fraction); higher = more cells survive
[1] = compound: C1CNCCC1C2=CC(=NN2)C3=CC=NC=C3 + C[C@@H](Oc1cc(-c2cnn(C3CCNCC3)c2)cnc1N)c1c(Cl)ccc(F)c1Cl [Crizotinib] (partner 1 µM)
How it was run: (§1)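 For relative viability, nuclei counts in treated wells were divided by those in vehicle wells. Lung cancer cell lines had been pin-tool dosed in 1536-well plates the day after seeding and cultured for 5 days, then fixed and stained in one step (final 0.05% Triton X-100, 1% formaldehyde, 1 ug/ml Hoechst) and imaged at 4×. Doses were one drug alone or a fixed anchor-drug dose plus five library-drug doses (not always all listed) in √10 steps, and values are duplicate-plate medians.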

[2] = compound: C1CNCCC1C2=CC(=NN2)C3=CC=NC=C3 + C[C@]1(O)C[C@@H](c2nc(-c3ccc4ccc(-c5ccccc5)nc4c3)c3c(N)nccn32)C1 [Linsitinib] (partner 1 µM)
How it was run: as §1

Tanzisertib + Bortezomib = compound: O[C@H]1CC[C@H](Nc2ncc3nc(Nc4c(F)cc(F)cc4F)n([C@H]4CCOC4)c3n2)CC1 [Tanzisertib] + CC(C)C[C@H](NC(=O)[C@H](Cc1ccccc1)NC(=O)c1cnccn1)B(O)O [Bortezomib] (partner 0.002 µM)
How it was run: as §1

[3] = compound: C1CNCCC1C2=CC(=NN2)C3=CC=NC=C3 + Nc1ncn([C@H]2C[C@H](O)[C@@H](CO)O2)c(=O)n1 [Decitabine] (partner 2 µM)
How it was run: as §1

Calu-6
relative viability ([1]; first compound 0.08 µM): 0.838
relative viability ([1]; first compound 0.8 µM): 0.91
relative viability ([1]; first compound 2.53 µM): 0.833
relative viability ([1]; first compound 8 µM): 0.814
relative viability ([2]; first compound 0.08 µM): 0.877
relative viability ([2]; first compound 0.8 µM): 0.941
relative viability ([2]; first compound 2.53 µM): 0.994
relative viability ([2]; first compound 8 µM): 0.884
relative viability (Tanzisertib + Bortezomib; first compound 0.08 µM): 1.02
relative viability (Tanzisertib + Bortezomib; first compound 0.253 µM): 0.993
relative viability (Tanzisertib + Bortezomib; first compound 0.8 µM): 1.03
relative viability (Tanzisertib + Bortezomib; first compound 2.53 µM): 1.06
relative viability (Tanzisertib + Bortezomib; first compound 8 µM): 1.05

ChaGo-K-1
relative viability ([1]; first compound 0.08 µM): 0.926
relative viability ([1]; first compound 0.8 µM): 1.15
relative viability ([1]; first compound 2.53 µM): 1.08
relative viability ([1]; first compound 8 µM): 1.09
relative viability ([3]; first compound 0.08 µM): 0.496
relative viability ([3]; first compound 0.8 µM): 0.525
relative viability ([3]; first compound 2.53 µM): 0.506
relative viability ([3]; first compound 8 µM): 0.529
relative viability (Tanzisertib + Bortezomib; first compound 0.08 µM): 0.915
relative viability (Tanzisertib + Bortezomib; first compound 0.253 µM): 1.21
relative viability (Tanzisertib + Bortezomib; first compound 0.8 µM): 1.07
relative viability (Tanzisertib + Bortezomib; first compound 2.53 µM): 0.934
relative viability (Tanzisertib + Bortezomib; first compound 8 µM): 0.916

EBC-1
relative viability ([1]; first compound 0.08 µM): 0.202
relative viability ([1]; first compound 0.8 µM): 0.219
relative viability ([1]; first compound 2.53 µM): 0.233
relative viability ([1]; first compound 8 µM): 0.192
relative viability ([2]; first compound 0.08 µM): 0.899
relative viability ([2]; first compound 0.8 µM): 0.938
relative viability ([2]; first compound 2.53 µM): 1.09
relative viability ([2]; first compound 8 µM): 0.949
relative viability (Tanzisertib + Bortezomib; first compound 0.08 µM): 0.638
relative viability (Tanzisertib + Bortezomib; first compound 0.253 µM): 0.609
relative viability (Tanzisertib + Bortezomib; first compound 0.8 µM): 0.503
relative viability (Tanzisertib + Bortezomib; first compound 2.53 µM): 0.632
relative viability (Tanzisertib + Bortezomib; first compound 8 µM): 0.374

EKVX
relative viability ([1]; first compound 0.08 µM): 1.05
relative viability ([1]; first compound 0.8 µM): 0.807
relative viability ([1]; first compound 2.53 µM): 0.956
relative viability ([1]; first compound 8 µM): 0.925
relative viability ([2]; first compound 0.08 µM): 1.06
relative viability ([2]; first compound 0.8 µM): 0.865
relative viability ([2]; first compound 2.53 µM): 1.13
relative viability ([2]; first compound 8 µM): 0.984
relative viability ([3]; first compound 0.08 µM): 0.291
relative viability ([3]; first compound 2.53 µM): 0.318
relative viability ([3]; first compound 8 µM): 0.323
relative viability (Tanzisertib + Bortezomib; first compound 0.08 µM): 1.1
relative viability (Tanzisertib + Bortezomib; first compound 0.253 µM): 0.996
relative viability (Tanzisertib + Bortezomib; first compound 0.8 µM): 1.02
relative viability (Tanzisertib + Bortezomib; first compound 2.53 µM): 0.965
relative viability (Tanzisertib + Bortezomib; first compound 8 µM): 0.683

EMC-BAC-2
relative viability ([1]; first compound 0.08 µM): 0.705
relative viability ([1]; first compound 0.8 µM): 0.772
relative viability ([1]; first compound 2.53 µM): 0.751
relative viability ([1]; first compound 8 µM): 0.793
relative viability ([2]; first compound 0.08 µM): 0.78
relative viability ([2]; first compound 0.8 µM): 0.806
relative viability ([2]; first compound 2.53 µM): 0.818
relative viability ([2]; first compound 8 µM): 0.771
relative viability ([3]; first compound 0.8 µM): 1.06
relative viability ([3]; first compound 2.53 µM): 1
relative viability ([3]; first compound 8 µM): 1.03
relative viability (Tanzisertib + Bortezomib; first compound 0.08 µM): 1.19
relative viability (Tanzisertib + Bortezomib; first compound 0.253 µM): 1.14
relative viability (Tanzisertib + Bortezomib; first compound 0.8 µM): 1.13
relative viability (Tanzisertib + Bortezomib; first compound 2.53 µM): 1.05
relative viability (Tanzisertib + Bortezomib; first compound 8 µM): 1.06

EPLC-272H
relative viability ([1]; first compound 0.08 µM): 0.922
relative viability ([1]; first compound 0.8 µM): 0.937
relative viability ([1]; first compound 2.53 µM): 0.91
relative viability ([1]; first compound 8 µM): 0.867
relative viability ([2]; first compound 0.08 µM): 1.15
relative viability ([2]; first compound 0.8 µM): 1.15
relative viability ([2]; first compound 2.53 µM): 1.22
relative viability ([2]; first compound 8 µM): 1.17
relative viability ([3]; first compound 0.08 µM): 0.372
relative viability ([3]; first compound 0.8 µM): 0.385
relative viability ([3]; first compound 2.53 µM): 0.389
relative viability ([3]; first compound 8 µM): 0.365
relative viability (Tanzisertib + Bortezomib; first compound 0.08 µM): 1.04
relative viability (Tanzisertib + Bortezomib; first compound 0.253 µM): 0.949
relative viability (Tanzisertib + Bortezomib; first compound 0.8 µM): 0.876
relative viability (Tanzisertib + Bortezomib; first compound 2.53 µM): 0.943
relative viability (Tanzisertib + Bortezomib; first compound 8 µM): 1.04

H3255
relative viability ([1]; first compound 0.08 µM): 0.891
relative viability ([1]; first compound 0.8 µM): 0.816
relative viability ([1]; first compound 2.53 µM): 1.02
relative viability ([1]; first compound 8 µM): 0.609
relative viability ([2]; first compound 0.08 µM): 0.858
relative viability ([2]; first compound 0.8 µM): 1.13
relative viability ([2]; first compound 2.53 µM): 0.957
relative viability ([2]; first compound 8 µM): 0.993
relative viability ([3]; first compound 0.08 µM): 0.532
relative viability ([3]; first compound 2.53 µM): 0.674
relative viability ([3]; first compound 8 µM): 0.587
relative viability (Tanzisertib + Bortezomib; first compound 0.08 µM): 0.829
relative viability (Tanzisertib + Bortezomib; first compound 0.253 µM): 0.796
relative viability (Tanzisertib + Bortezomib; first compound 0.8 µM): 0.819
relative viability (Tanzisertib + Bortezomib; first compound 2.53 µM): 0.845
relative viability (Tanzisertib + Bortezomib; first compound 8 µM): 0.427

HARA
relative viability ([1]; first compound 0.08 µM): 1.05
relative viability ([1]; first compound 0.8 µM): 1.08
relative viability ([1]; first compound 2.53 µM): 1.05
relative viability ([1]; first compound 8 µM): 1.03
relative viability ([2]; first compound 0.08 µM): 0.938
relative viability ([2]; first compound 0.8 µM): 1.07
relative viability ([2]; first compound 2.53 µM): 0.983
relative viability ([2]; first compound 8 µM): 0.939
relative viability ([3]; first compound 0.08 µM): 0.471
relative viability ([3]; first compound 0.8 µM): 0.524
relative viability ([3]; first compound 2.53 µM): 0.762
relative viability ([3]; first compound 8 µM): 0.432
relative viability (Tanzisertib + Bortezomib; first compound 0.08 µM): 1.22
relative viability (Tanzisertib + Bortezomib; first compound 0.253 µM): 1.16
relative viability (Tanzisertib + Bortezomib; first compound 0.8 µM): 1.18
relative viability (Tanzisertib + Bortezomib; first compound 2.53 µM): 1.17
relative viability (Tanzisertib + Bortezomib; first compound 8 µM): 1.18

HCC-15
relative viability ([1]; first compound 0.08 µM): 0.805
relative viability ([1]; first compound 0.8 µM): 0.928
relative viability ([1]; first compound 2.53 µM): 0.839
relative viability ([1]; first compound 8 µM): 0.779
relative viability ([2]; first compound 0.08 µM): 0.809
relative viability ([2]; first compound 0.8 µM): 0.903
relative viability ([2]; first compound 2.53 µM): 0.937
relative viability ([2]; first compound 8 µM): 0.905
relative viability ([3]; first compound 0.08 µM): 0.652
relative viability ([3]; first compound 0.8 µM): 0.793
relative viability ([3]; first compound 2.53 µM): 0.587
relative viability ([3]; first compound 8 µM): 0.621
relative viability (Tanzisertib + Bortezomib; first compound 0.08 µM): 1.25
relative viability (Tanzisertib + Bortezomib; first compound 0.253 µM): 1.08
relative viability (Tanzisertib + Bortezomib; first compound 0.8 µM): 1.09
relative viability (Tanzisertib + Bortezomib; first compound 2.53 µM): 1.01
relative viability (Tanzisertib + Bortezomib; first compound 8 µM): 1
